Data published in ChEMBL document CHEMBL5625277, “Systematical mutational analysis of teriparatide on anti-osteoporosis activity by alanine scanning” (Bioorg Med Chem Lett, 2024).
Active and inactive are the calls of the source. The rule behind the calls is not given here.

Legend:
[1] = Cytotoxicity in pre-osteoblasts (unknown origin) assessed as cell death upto 5 uM by CCK8 assay; type: toxicity, cell-based; details: pre-osteoblast
Skull progenitor cell = assay: Induction of osteoblast differentiation in mouse skull progenitor cells assessed as increase in purple-stained ALP-positive cells at 100 nM measured after 4 days by imaging analysis; type: functional, cell-based; details: time 4.0 day
Calvarial osteoblast = assay: Induction of mineralization in osteoblast assessed as formation of calcium nodules at 50 to 100 nM measured after 14 days by Alizarin Red S staining based analysis; type: functional, cell-based; details: dose 50-100 nM, time 14.0 day

Compound | Activity [1] | Activity (Skull progenitor cell) | Activity (Calvarial osteoblast)
CC[C@H](C)[C@H](NC(=O)[C@H](CCC(=O)O)NC(=O)[C@H](CO)NC(=O)[C@@H](NC(=O)[C@H](CO)NC(C)=O)C(C)C)C(=O)N[C@@H](CCC(N)=O)C(=O)N[C@@H](CC(C)C)C(=O)N[C@@H](CCSC)C(=O)N[C@@H](Cc1cnc[nH]1)C(=O)N[C@@H](CC(N)=O)C(=O)N[C@@H](CC(C)C)C(=O)NCC(=O)N[C@@H](C)C(=O)N[C@@H](Cc1cnc[nH]1)C(=O)N[C@@H](CC(C)C)C(=O)N[C@@H](CC(N)=O)C(=O)N[C@@H](CO)C(=O)N[C@@H](CCSC)C(=O)N[C@@H](CCC(=O)O)C(=O)N[C@@H](CCCNC(=N)N)C(=O)N[C@H](C(=O)N[C@@H](CCC(=O)O)C(=O)N[C@@H](Cc1c[nH]c2ccccc12)C(=O)N[C@@H](CC(C)C)C(=O)N[C@@H](CCCNC(=N)N)C(=O)N[C@@H](CCCCN)C(=O)N[C@@H](CCCCN)C(=O)N[C@@H](CC(C)C)C(=O)N[C@@H](CCC(N)=O)C(=O)N[C@@H](CC(=O)O)C(=O)N[C@H](C(=O)N[C@@H](Cc1cnc[nH]1)C(=O)N[C@@H](CC(N)=O)C(=O)N[C@@H](Cc1ccccc1)C(N)=O)C(C)C)C(C)C | Non-Toxic | Active | Active
CC[C@H](C)[C@H](NC(=O)[C@H](CCC(=O)O)NC(=O)[C@H](CO)NC(=O)[C@@H](NC(=O)[C@H](CO)NC(C)=O)C(C)C)C(=O)N[C@@H](CCC(N)=O)C(=O)N[C@@H](CC(C)C)C(=O)N[C@@H](CCSC)C(=O)N[C@@H](Cc1cnc[nH]1)C(=O)N[C@@H](CC(N)=O)C(=O)N[C@@H](CC(C)C)C(=O)NCC(=O)N[C@@H](CCCCN)C(=O)N[C@@H](Cc1cnc[nH]1)C(=O)N[C@@H](CC(C)C)C(=O)N[C@@H](CC(N)=O)C(=O)N[C@@H](CO)C(=O)N[C@@H](CCSC)C(=O)N[C@@H](CCC(=O)O)C(=O)N[C@@H](CCCNC(=N)N)C(=O)N[C@H](C(=O)N[C@@H](CCC(=O)O)C(=O)N[C@@H](Cc1c[nH]c2ccccc12)C(=O)N[C@@H](CC(C)C)C(=O)N[C@@H](CCCNC(=N)N)C(=O)N[C@@H](CCCCN)C(=O)N[C@@H](CCCCN)C(=O)N[C@@H](CC(C)C)C(=O)N[C@@H](CCC(N)=O)C(=O)N[C@@H](C)C(=O)N[C@H](C(=O)N[C@@H](Cc1cnc[nH]1)C(=O)N[C@@H](CC(N)=O)C(=O)N[C@@H](Cc1ccccc1)C(N)=O)C(C)C)C(C)C | Non-Toxic | Active | Active
CC[C@H](C)[C@H](NC(=O)[C@H](CCC(=O)O)NC(=O)[C@H](CO)NC(=O)[C@@H](NC(=O)[C@H](CO)NC(C)=O)C(C)C)C(=O)N[C@@H](CCC(N)=O)C(=O)N[C@@H](CC(C)C)C(=O)N[C@@H](CCSC)C(=O)N[C@@H](Cc1cnc[nH]1)C(=O)N[C@@H](CC(N)=O)C(=O)N[C@@H](CC(C)C)C(=O)NCC(=O)N[C@@H](CCCCN)C(=O)N[C@@H](C)C(=O)N[C@@H](CC(C)C)C(=O)N[C@@H](CC(N)=O)C(=O)N[C@@H](CO)C(=O)N[C@@H](CCSC)C(=O)N[C@@H](CCC(=O)O)C(=O)N[C@@H](CCCNC(=N)N)C(=O)N[C@H](C(=O)N[C@@H](CCC(=O)O)C(=O)N[C@@H](Cc1c[nH]c2ccccc12)C(=O)N[C@@H](CC(C)C)C(=O)N[C@@H](CCCNC(=N)N)C(=O)N[C@@H](CCCCN)C(=O)N[C@@H](CCCCN)C(=O)N[C@@H](CC(C)C)C(=O)N[C@@H](CCC(N)=O)C(=O)N[C@@H](CC(=O)O)C(=O)N[C@H](C(=O)N[C@@H](Cc1cnc[nH]1)C(=O)N[C@@H](CC(N)=O)C(=O)N[C@@H](Cc1ccccc1)C(N)=O)C(C)C)C(C)C | Non-Toxic | – | –
CC[C@H](C)[C@H](NC(=O)[C@H](CCC(=O)O)NC(=O)[C@H](CO)NC(=O)[C@@H](NC(=O)[C@H](CO)NC(C)=O)C(C)C)C(=O)N[C@@H](CCC(N)=O)C(=O)N[C@@H](CC(C)C)C(=O)N[C@@H](CCSC)C(=O)N[C@@H](Cc1cnc[nH]1)C(=O)N[C@@H](C)C(=O)N[C@@H](CC(C)C)C(=O)NCC(=O)N[C@@H](CCCCN)C(=O)N[C@@H](Cc1cnc[nH]1)C(=O)N[C@@H](CC(C)C)C(=O)N[C@@H](CC(N)=O)C(=O)N[C@@H](CO)C(=O)N[C@@H](CCSC)C(=O)N[C@@H](CCC(=O)O)C(=O)N[C@@H](CCCNC(=N)N)C(=O)N[C@H](C(=O)N[C@@H](CCC(=O)O)C(=O)N[C@@H](Cc1c[nH]c2ccccc12)C(=O)N[C@@H](CC(C)C)C(=O)N[C@@H](CCCNC(=N)N)C(=O)N[C@@H](CCCCN)C(=O)N[C@@H](CCCCN)C(=O)N[C@@H](CC(C)C)C(=O)N[C@@H](CCC(N)=O)C(=O)N[C@@H](CC(=O)O)C(=O)N[C@H](C(=O)N[C@@H](Cc1cnc[nH]1)C(=O)N[C@@H](CC(N)=O)C(=O)N[C@@H](Cc1ccccc1)C(N)=O)C(C)C)C(C)C | Non-Toxic | – | –
CC[C@H](C)[C@H](NC(=O)[C@H](CCC(=O)O)NC(=O)[C@H](CO)NC(=O)[C@@H](NC(=O)[C@H](CO)NC(C)=O)C(C)C)C(=O)N[C@@H](CCC(N)=O)C(=O)N[C@@H](CC(C)C)C(=O)N[C@@H](CCSC)C(=O)N[C@@H](Cc1cnc[nH]1)C(=O)N[C@@H](CC(N)=O)C(=O)N[C@@H](CC(C)C)C(=O)NCC(=O)N[C@@H](CCCCN)C(=O)N[C@@H](Cc1cnc[nH]1)C(=O)N[C@@H](CC(C)C)C(=O)N[C@@H](CC(N)=O)C(=O)N[C@@H](CO)C(=O)N[C@@H](C)C(=O)N[C@@H](CCC(=O)O)C(=O)N[C@@H](CCCNC(=N)N)C(=O)N[C@H](C(=O)N[C@@H](CCC(=O)O)C(=O)N[C@@H](Cc1c[nH]c2ccccc12)C(=O)N[C@@H](CC(C)C)C(=O)N[C@@H](CCCNC(=N)N)C(=O)N[C@@H](CCCCN)C(=O)N[C@@H](CCCCN)C(=O)N[C@@H](CC(C)C)C(=O)N[C@@H](CCC(N)=O)C(=O)N[C@@H](CC(=O)O)C(=O)N[C@H](C(=O)N[C@@H](Cc1cnc[nH]1)C(=O)N[C@@H](CC(N)=O)C(=O)N[C@@H](Cc1ccccc1)C(N)=O)C(C)C)C(C)C | Non-Toxic | – | –
